Values of other authors, collected in patent publication US20060239954A1, “Antimicrobial spray for use on pets” (priority 2005, published 2006).

Tests used:
Settings in all cases: 0.1% aqueous solution
Staphylococcus aureus = tested on: Staphylococcus aureus
Escherichia coli = tested on: Escherichia coli
Pseudomonas aeruginosa = tested on: Pseudomonas aeruginosa

N=C(NCCCCCCNC(=N)NC(=N)Nc1ccc(Cl)cc1)NC(=N)Nc1ccc(Cl)cc1.O=C(O)[C@H](O)[C@@H](O)[C@H](O)[C@H](O)CO.O=C(O)[C@H](O)[C@@H](O)[C@H](O)[C@H](O)CO [Chlorhexidine gluconate, chlorhexidine gluconate]
bactericidal: bactericidal against Staphylococcus aureus (Staphylococcus aureus) | bactericidal against Escherichia coli (Escherichia coli) | bactericidal against Pseudomonas aeruginosa (Pseudomonas aeruginosa)
